Values quoted from earlier work, collected in US20240299307A1, “Extended-release compositions comprising atomoxetine” (Tulex Pharmaceuticals, Inc., priority 2021, published 2024).
Read-outs that look alike come from different tables or passages of the source.

In the case of `CNCC[C@@H](Oc1ccccc1C)c1ccccc1` [ATO], the solubility (pH of about 1) is listed as “about 18 mg/mL”, the solubility (pH of about 4.5 (highest solubility)) is listed as “about 52 mg/mL” and the “decrease of solubility relative to pH about 4.5” value (pH of greater than about 4.5) is listed as “approximately 10 fold”. For the same compound, the “decrease of solubility relative to pH about 4.5” value (pH of less than 4.5) was “approximately 3 fold”.
